Measurements: ChEMBL document CHEMBL1697781, “Assessment of the health effects of chemicals in humans: II. Construction of an adverse effects database for QSAR modeling” (Curr Drug Discov Technol, 2004)

Legend:
Details in all cases: human; call rule not given here
Hepatotoxicity [1] = test: FDA HLAED, liver enzyme composite activity
Hepatotoxicity [2] = test: FDA HLAED, alkaline phosphatase increase
Hepatotoxicity [3] = test: FDA HLAED, serum glutamic oxaloacetic transaminase (SGOT) increase
Hepatotoxicity [4] = test: FDA HLAED, serum glutamic pyruvic transaminase (SGPT) increase
Hepatotoxicity [5] = test: FDA HLAED, lactate dehydrogenase (LDH) increase
Hepatotoxicity [6] = test: FDA HLAED, gamma-glutamyl transferase (GGT) increase
Wherever GGT Increase - Index Value is given: reference of the scale not given here.
Wherever LDH Increase - Index Value is given: reference of the scale not given here.

Row | Structure (SMILES) | Composite Activity - Active (Hepatotoxicity [1]) | Composite Activity - Marginal (Hepatotoxicity [1]) | Composite Activity - Score (Hepatotoxicity [1]) | Alkaline Phosphatase Increase - Activity Score (Hepatotoxicity [2]) | Alkaline Phosphatase Increase - Index Value (Hepatotoxicity [2]) | Alkaline Phosphatase Increase - Number of Reports (Hepatotoxicity [2]) | SGOT Increase - Activity Score (Hepatotoxicity [3]) | SGOT Increase - Index Value (Hepatotoxicity [3]) | SGOT Increase - Number of Reports (Hepatotoxicity [3]) | SGPT Increase - Activity Score (Hepatotoxicity [4]) | SGPT Increase - Index Value (Hepatotoxicity [4]) | SGPT Increase - Number of Reports (Hepatotoxicity [4]) | LDH Increase - Activity Score (Hepatotoxicity [5]) | LDH Increase - Index Value (Hepatotoxicity [5]) | LDH Increase - Number of Reports (Hepatotoxicity [5]) | GGT Increase - Activity Score (Hepatotoxicity [6]) | GGT Increase - Index Value (Hepatotoxicity [6]) | GGT Increase - Number of Reports (Hepatotoxicity [6]) | also measured
1 | C[C@]12CC[C@@H]3c4ccc(OC(=O)N(CCCl)CCCl)cc4CC[C@H]3[C@@H]1CC[C@@H]2O [ESTRAMUSTINE] | 1 | 0 | Inactive | Active | 43.7 | < 4 | Inactive | 0 | < 4 | Inactive | 0 | < 4 | Inactive | 0 | < 4 | Inactive | 0 | < 4 | 
2 | CCc1cccc2c3c([nH]c12)C(CC)(CC(=O)O)OCC3 (stereo unspecified) [ETODOLAC] | 0 | 0 | Inactive | Inactive | 0.8 | >= 4 | Inactive | 1.1 | >= 4 | Inactive | 1.4 | >= 4 | Inactive | 0.6 | >= 4 | Inactive | 0.8 | >= 4 | 
3 | CCOC(=O)c1cncn1[C@H](C)c1ccccc1 [ETOMIDATE] | 0 | 0 | Inactive | Inactive | 0 | < 4 | Inactive | 0 | < 4 | Inactive | 0 | < 4 | Inactive | 0 | < 4 | Inactive | 0 | < 4 | 
4 | COc1cc([C@@H]2c3cc4c(cc3[C@@H](O[C@@H]3O[C@@H]5CO[C@@H](C)O[C@H]5[C@H](O)[C@H]3O)[C@H]3COC(=O)[C@H]23)OCO4)cc(OC)c1O [ETOPOSIDE] |  |  |  | Inactive | 0.8 | < 4 | Inactive | 0.4 | < 4 | Inactive | 0 | < 4 | Inactive | 0.4 | < 4 | Inactive | 0 | < 4 | Composite Activity - Active (Hepatotoxicity [1]; Liver): 0; Composite Activity - Marginal (Hepatotoxicity [1]; Liver): 0; Composite Activity - Score (Hepatotoxicity [1]; Liver): Inactive
5 | CCOC(=O)/C=C(C)/C=C/C=C(C)/C=C/c1c(C)cc(OC)c(C)c1C [ETRETINATE] | 2 | 1 | Active | Active | 5.3 | >= 4 | Active | 5.3 | >= 4 | Marginally Active | 3.2 | >= 4 | Inactive | 2.9 | >= 4 | Inactive | 0.6 | < 4 | 
6 | CC(=O)OCC(CCn1cnc2cnc(N)nc21)COC(C)=O [FAMCICLOVIR] | 0 | 0 | Inactive | Inactive | 0 | < 4 | Inactive | 0 | < 4 | Inactive | 0 | < 4 | Inactive | 0 | < 4 | Inactive | 0 | < 4 | 
7 | NC(N)=Nc1nc(CSCCC(N)=NS(N)(=O)=O)cs1 [FAMOTIDINE] |  |  |  | Inactive | 0.8 | >= 4 | Inactive | 0.8 | >= 4 | Inactive | 0.7 | >= 4 | Inactive | 0.4 | >= 4 | Inactive | 0.4 | >= 4 | Composite Activity - Active (Hepatotoxicity [1]; Liver): 0; Composite Activity - Marginal (Hepatotoxicity [1]; Liver): 0; Composite Activity - Score (Hepatotoxicity [1]; Liver): Inactive
8 | NC(=O)OCC(COC(N)=O)c1ccccc1 [FELBAMATE] | 5 | 0 | Active | Active | 15 | >= 4 | Active | 11.7 | >= 4 | Active | 11.7 | >= 4 | Active | 8.3 | >= 4 | Active | 15.8 | >= 4 | 
9 | CCOC(=O)C1=C(C)NC(C)=C(C(=O)OC)C1c1cccc(Cl)c1Cl (stereo unspecified) [FELODIPINE] | 0 | 0 | Inactive | Inactive | 0.6 | < 4 | Inactive | 0.3 | < 4 | Inactive | 0.3 | < 4 | Inactive | 0.3 | < 4 | Inactive | 0.3 | < 4 | 
10 | CC(C)(C(=O)O)c1ccc(C(O)CCCN2CCC(C(O)(c3ccccc3)c3ccccc3)CC2)cc1 (stereo unspecified) [FEXOFENADINE] |  |  |  | Inactive | 0 | < 4 | Inactive | 0 | < 4 | Inactive | 0 | < 4 | Inactive | 0 | < 4 | Inactive | 0 | < 4 | Composite Activity - Active (Hepatotoxicity [1]; Liver): 0; Composite Activity - Marginal (Hepatotoxicity [1]; Liver): 0; Composite Activity - Score (Hepatotoxicity [1]; Liver): Inactive
11 | CC(C)(C)NC(=O)[C@H]1CC[C@H]2[C@@H]3CC[C@H]4NC(=O)C=C[C@]4(C)[C@H]3CC[C@]12C [FINASTERIDE] | 0 | 0 | Inactive | Inactive | 2.5 | >= 4 | Inactive | 2.7 | >= 4 | Inactive | 2.7 | >= 4 | Inactive | 1.1 | >= 4 | Inactive | 1 | >= 4 | 
12 | O=C(NCC1CCCCN1)c1cc(OCC(F)(F)F)ccc1OCC(F)(F)F (stereo unspecified) [FLECAINIDE] | 3 | 1 | Active | Active | 8.3 | >= 4 | Active | 9.6 | >= 4 | Active | 8.3 | >= 4 | Marginally Active | 3.2 | >= 4 | Inactive | 0 | < 4 | 
